# Measured values from ChEMBL document CHEMBL1135299, “Design, synthesis and biological activity of novel non-peptidyl endothelin converting enzyme inhibitors, 1-phenyl-tetrazole-formazan analogues” (Bioorg Med Chem Lett, 2002).
# Target: T1, Endothelin-converting enzyme 1 (Rattus norvegicus, UniProt P42893)
# T1 sequence (P42893 whole entry): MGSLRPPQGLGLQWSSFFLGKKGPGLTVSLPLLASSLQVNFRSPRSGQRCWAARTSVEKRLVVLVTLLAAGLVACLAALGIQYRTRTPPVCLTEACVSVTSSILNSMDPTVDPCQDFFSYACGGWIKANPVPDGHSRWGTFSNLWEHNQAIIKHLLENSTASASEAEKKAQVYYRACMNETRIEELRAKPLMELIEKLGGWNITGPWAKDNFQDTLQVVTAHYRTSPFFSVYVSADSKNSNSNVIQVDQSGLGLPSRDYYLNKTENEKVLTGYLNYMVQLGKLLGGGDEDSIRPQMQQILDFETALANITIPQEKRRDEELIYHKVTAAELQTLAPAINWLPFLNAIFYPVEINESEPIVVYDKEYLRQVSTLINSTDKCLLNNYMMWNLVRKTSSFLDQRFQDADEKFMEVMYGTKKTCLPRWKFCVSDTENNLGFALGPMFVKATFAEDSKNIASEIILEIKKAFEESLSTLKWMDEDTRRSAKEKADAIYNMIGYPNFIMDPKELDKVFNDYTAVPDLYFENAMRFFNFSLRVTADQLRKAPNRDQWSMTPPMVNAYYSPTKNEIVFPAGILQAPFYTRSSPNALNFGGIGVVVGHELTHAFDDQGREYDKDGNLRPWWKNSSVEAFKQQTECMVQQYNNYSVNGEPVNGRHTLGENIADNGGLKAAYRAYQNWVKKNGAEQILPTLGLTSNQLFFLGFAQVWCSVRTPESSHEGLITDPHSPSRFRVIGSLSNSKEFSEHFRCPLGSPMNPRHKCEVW
# Assay: Tested in vitro for inhibition of Endothelin-converting enzyme (ECE) of rat lung membrane
# Format: tissue-based
row,IC50 [µM],Compound
1,2.7,CCC(C)c1ccc(N/N=C(\N=N\c2nnnn2-c2ccccc2)c2ccccc2)cc1 (stereo not given)
2,3.4,CC(C)c1ccc(N/N=C(\N=N\c2nnnn2-c2ccccc2)c2ccccc2)cc1
3,10,c1ccc(N/N=C(\N=N\c2nnnn2-c2ccccc2)c2ccccc2)cc1

# More lines, now with the values behind:
row,Compound,IC50 [µM]
1,CCc1ccc(N/N=C(\N=N\c2nnnn2-c2ccccc2)c2ccccc2)cc1,3.8
2,CCCc1ccc(N/N=C(\N=N\c2nnnn2-c2ccccc2)c2ccccc2)cc1,2.6
3,Cc1nn(-c2ccccc2)c(NC(=O)NS(=O)(=O)c2ccc(Cl)cc2)c1C#N,0.042
4,CC(C)(C)c1ccc(N/N=C(\N=N\c2nnnn2-c2ccccc2)c2ccccc2)cc1,3.8
5,c1ccc(C(=N/Nc2ccc(C3CCCCC3)cc2)/N=N/c2nnnn2-c2ccccc2)cc1,3.6
6,Cc1ccc(N/N=C(\N=N\c2nnnn2-c2ccccc2)c2ccccc2)cc1,8.4

# Target: T2, Endothelin-converting enzyme 1 (Rattus norvegicus) (UniProt P42893)
# T2 sequence (whole entry): T1 sequence (P42893 whole entry)
# Assay: Tested in vitro for percent inhibition of Endothelin-converting enzyme (ECE) of rat lung membrane at 10 uM
# Format: tissue-based
row,inhibition [%],Compound
1,37,Clc1ccc(N/N=C(\N=N\c2nnnn2-c2ccccc2)c2ccccc2)cc1
